Measured values taken from US11339151B2, “Aliphatic acid amide derivative” (Sumitomo Dainippon Pharma Co., Ltd., priority 2019, dated 2022).

What was measured:
[1] = biological target: hERG channel (Homo sapiens (Human), UniProt Q12809); experiment: Test 5: inhibitory activity for hERG channel (whole cell patch clamp, hERG-CHO cells); format: cell-based; details: hERG-CHO cells, auto patch clamp
Method: Test 5: Evaluation of Inhibitory Activity for hERG Channel
Inhibitory activity of the present compound for hERG channel was measured by whole cell patch clamp method with an auto patch clamp system using CHO cells in which hERG channel involved in human rapidly activating delayed rectifier potassium current (IKr) was forcibly expressed.
hERG-CHO cells purchased from ChanTest Cop. were cultured in a CO2 incubator at 37° C., and dissociated from a flask with trypsin shortly before the measurement of hERG current to prepare a cell suspension.
The cell suspension, the extracellular fluid, the intracellular fluid, and the measurement plate were set in an auto patch clamp system, and hERG current was measured by whole cell patch clamp method. […] Each pulse interval was 15 seconds. The data analysis was carried out with Qube Assay Software (Sophion Sophion). The test was carried out by applying incrementally 4 concentrations of each test compound, and the average of the maximum peak tail currents which were obtained from the last 3 stimulations in each concentration was determined as the evaluated data.

[2] = Test 4: predictive test of human half life; details: calculated from rat distribution volume, serum unbound fraction and Test 3-2 stability
Method: Test 4: Predictive Test of Human Half Life
The present compound was intravenously administered to a rat as an aqueous solution of 0.01 mol/L hydrochloric acid. Blood was collected on 5 minutes, 15 minutes, 30 minutes, 1 hour, 2 hours, 4 hours, 6 hours, and 24 hours after the administration. Plasma was obtained from the collected blood, the drug concentration in plasma was measured by LC-MS, and the distribution volume of rat was calculated from the transition of the concentration.
The unbound fraction rate of the present compound in human or rat serum was measured by equilibrium dialysis method.
The half-life in human was calculated according to the following formula using the results of the distribution volume of rat, the unbound fraction rate in human or rat serum, and the metabolic stability in human hepatic microsome obtained in Test 3-2.

[3] = Test 3-2: metabolic stability test in human hepatic microsome; format: in vitro ADME; details: microsome 0.5 or 1.0 mg/mL, test compound 0.1 μmol/L, 30 or 60 minutes
Method: Test 3-2: Metabolic Stability Test in Human Hepatic Microsome
(§1) For more accurate evaluation of the metabolic stability in human hepatic microsome, the metabolic stability of the present compound in human hepatic microsome was evaluated at an appropriate concentration of human hepatic microsome as mentioned below. Human hepatic microsome was obtained from Xenontech. Human hepatic microsome, NADPH, and each test compound were mixed in 25 mmol/L phosphate buffer solution (pH 7.4) to reach the following concentrations as shown below, and the mixture was incubated at 37° C. for 60 minutes. • Human hepatic microsome: 0.5 or 1.0 mg/mL • NAPDH: 3.2 mmol/L • Test compound: 0.1 μmol/L
The residual ratio of a test compound in each sample after 30 or 60 minutes was measured by LC-MS, and the metabolic stability in human hepatic microsome was calculated from the following formula. Metabolic stability in human hepatic microsome (mL/min/mg protein)=−LN (residual ratio)/reaction time/concentration of human hepatic microsome

[4] = Test 3-1: metabolic stability test in human hepatic microsome; format: in vitro ADME; details: microsome 0.1 mg/mL, test compound 0.1 μmol/L, 37° C., 30 minutes
Method: Test 3-1: Metabolic Stability Test in Human Hepatic Microsome
as §1, with “The” for “For more accurate evaluation of the metabolic stability in human hepatic microsome, the”, “evaluated” for “evaluated at an appropriate concentration of human hepatic microsome”, “30” for “60”, “0.1” for “0.5 or 1.0”, “NADPH:” for “NAPDH:”
The residual ratio of test compound in each sample after 30 minutes was measured by LC-MS, and the metabolic stability in human hepatic microsome was calculated from the following formula. Metabolic stability in human hepatic microsome (mL/min/mg protein)=−LN (residual ratio)/30/0.1

[5] = biological target: T1, human 5-HT7 receptor (Homo sapiens (Human), UniProt P34969); experiment: Test 2: antagonist activity for human 5-HT7 receptor (aequorin luminescence, CHO-K1 cells); format: cell-based; details: Gα16
T1 sequence (P34969 whole entry): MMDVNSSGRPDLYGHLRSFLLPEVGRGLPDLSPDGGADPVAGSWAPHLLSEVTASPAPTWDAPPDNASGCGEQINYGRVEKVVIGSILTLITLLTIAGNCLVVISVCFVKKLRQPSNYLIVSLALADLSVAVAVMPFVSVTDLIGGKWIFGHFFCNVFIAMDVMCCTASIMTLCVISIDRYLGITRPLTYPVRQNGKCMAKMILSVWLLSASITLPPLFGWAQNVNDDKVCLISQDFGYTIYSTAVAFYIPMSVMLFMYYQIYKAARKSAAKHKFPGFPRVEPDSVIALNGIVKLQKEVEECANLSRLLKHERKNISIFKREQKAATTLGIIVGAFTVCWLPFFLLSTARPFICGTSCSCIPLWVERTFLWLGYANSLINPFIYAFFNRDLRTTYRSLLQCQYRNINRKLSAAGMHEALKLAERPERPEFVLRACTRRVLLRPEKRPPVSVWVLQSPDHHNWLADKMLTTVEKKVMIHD
Method: (§2) Test 2: Evaluation of Antagonist Activity for Human 5-HT2A Receptor and Human 5-HT7 Receptor
(§3) Aequorin, Gα 16 protein, and each receptor were transiently expressed in CHO-K1 cells (Chinese hamster ovary). The cells were cultivated in a CO2 incubator at 37° C. overnight, seeded into a 384-well plate, and stood at room temperature for 2 hours. Each compound dissolved in DMSO was added thereto, and changes in luminescence were measured by FDSS/μCELL drug discovery screening support system (Hamamatsu Photonics K.K.). As for antagonist activity, inhibitory activity of each compound was calculated by setting the luminescence level of wells to which 10 μmol/L endogenous ligand was added as 100%.

[6] = biological target: T1, human 5-HT7 receptor; experiment: Test 1: binding activity for human 5-HT7 receptor ([3H]SB-269970, CHO cell membrane fraction); details: [3H]SB-269970, room temperature 60 minutes
Method: (§4) Ki value was evaluated from dissociation constant which was calculated from saturated binding tests, and a substrate concentration, and it was used as an index for binding affinity.

[7] = biological target: human 5-HT2A receptor (Homo sapiens (Human), UniProt P28223); experiment: Test 2: antagonist activity for human 5-HT2A receptor (aequorin luminescence, CHO-K1 cells); format: cell-based; details: Gα16
Sequence of human 5-HT2A receptor (P28223 whole entry): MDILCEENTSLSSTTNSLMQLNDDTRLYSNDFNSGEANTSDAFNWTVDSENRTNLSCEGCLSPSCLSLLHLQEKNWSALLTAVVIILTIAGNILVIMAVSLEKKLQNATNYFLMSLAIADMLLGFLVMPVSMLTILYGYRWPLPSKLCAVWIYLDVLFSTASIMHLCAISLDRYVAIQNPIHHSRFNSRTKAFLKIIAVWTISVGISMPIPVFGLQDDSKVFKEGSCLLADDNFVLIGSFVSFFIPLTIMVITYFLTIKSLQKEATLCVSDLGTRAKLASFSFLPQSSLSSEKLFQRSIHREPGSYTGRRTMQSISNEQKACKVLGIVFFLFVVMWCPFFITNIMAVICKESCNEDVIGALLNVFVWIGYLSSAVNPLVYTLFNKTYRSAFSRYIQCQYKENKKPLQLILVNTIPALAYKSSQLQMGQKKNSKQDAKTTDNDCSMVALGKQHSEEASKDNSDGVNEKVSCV
Method: as §2, §3

[8] = biological target: human D2 receptor (Homo sapiens (Human), UniProt P14416); experiment: Test 1: binding activity for human D2 receptor ([3H]Spiperone, CHO cell membrane fraction); details: [3H]Spiperone, room temperature 60 minutes
Sequence of human D2 receptor (P14416 whole entry): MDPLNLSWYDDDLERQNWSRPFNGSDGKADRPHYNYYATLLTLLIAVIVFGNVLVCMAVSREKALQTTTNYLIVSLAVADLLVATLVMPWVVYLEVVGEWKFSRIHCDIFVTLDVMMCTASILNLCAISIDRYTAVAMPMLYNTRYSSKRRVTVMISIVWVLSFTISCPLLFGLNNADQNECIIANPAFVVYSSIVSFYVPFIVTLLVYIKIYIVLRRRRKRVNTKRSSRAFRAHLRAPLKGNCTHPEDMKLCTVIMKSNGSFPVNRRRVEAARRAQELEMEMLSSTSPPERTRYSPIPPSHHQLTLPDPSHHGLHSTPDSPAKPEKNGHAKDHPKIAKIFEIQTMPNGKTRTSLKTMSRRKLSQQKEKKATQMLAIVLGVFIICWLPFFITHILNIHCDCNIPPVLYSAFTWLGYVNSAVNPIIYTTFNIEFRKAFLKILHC
Method: as §4

Sequence of hERG channel (Q12809 whole entry): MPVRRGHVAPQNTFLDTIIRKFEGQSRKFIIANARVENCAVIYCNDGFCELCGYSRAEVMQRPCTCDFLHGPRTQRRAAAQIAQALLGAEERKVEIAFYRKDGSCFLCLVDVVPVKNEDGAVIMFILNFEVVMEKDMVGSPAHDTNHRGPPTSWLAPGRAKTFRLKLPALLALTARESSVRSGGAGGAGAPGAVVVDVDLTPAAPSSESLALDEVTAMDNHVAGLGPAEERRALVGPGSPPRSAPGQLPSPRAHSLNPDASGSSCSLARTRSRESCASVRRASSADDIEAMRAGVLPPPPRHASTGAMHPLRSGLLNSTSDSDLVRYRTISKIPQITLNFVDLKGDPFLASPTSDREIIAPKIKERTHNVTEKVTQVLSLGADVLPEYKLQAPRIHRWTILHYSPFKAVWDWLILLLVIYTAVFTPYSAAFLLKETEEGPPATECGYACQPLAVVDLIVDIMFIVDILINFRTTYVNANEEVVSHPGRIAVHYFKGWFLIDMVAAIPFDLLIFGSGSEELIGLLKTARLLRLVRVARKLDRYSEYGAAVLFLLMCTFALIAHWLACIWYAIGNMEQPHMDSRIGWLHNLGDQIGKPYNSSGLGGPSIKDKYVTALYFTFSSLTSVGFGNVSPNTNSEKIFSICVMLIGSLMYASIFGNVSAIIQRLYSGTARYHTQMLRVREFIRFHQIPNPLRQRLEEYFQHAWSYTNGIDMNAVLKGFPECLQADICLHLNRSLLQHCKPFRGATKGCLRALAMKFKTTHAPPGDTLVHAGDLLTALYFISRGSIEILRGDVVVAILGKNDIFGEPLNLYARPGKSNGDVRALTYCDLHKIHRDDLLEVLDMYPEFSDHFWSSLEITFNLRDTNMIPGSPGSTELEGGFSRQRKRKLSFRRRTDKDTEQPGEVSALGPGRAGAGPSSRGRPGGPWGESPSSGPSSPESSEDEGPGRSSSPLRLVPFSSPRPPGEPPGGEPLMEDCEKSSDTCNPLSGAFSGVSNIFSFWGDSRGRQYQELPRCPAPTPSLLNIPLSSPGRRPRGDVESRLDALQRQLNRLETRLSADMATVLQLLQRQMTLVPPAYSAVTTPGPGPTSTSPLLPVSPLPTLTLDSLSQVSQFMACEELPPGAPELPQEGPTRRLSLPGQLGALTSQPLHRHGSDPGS

| Predicted half-life [2] | Metabolic stability in human hepatic microsome [3] | Metabolic stability in human hepatic microsome [4] | IC50 [5] | Ki [6] | Ki [8] | SMILES | IC50 [1] | IC50 [7] |
| --- | --- | --- | --- | --- | --- | --- | --- | --- |
| 3 h | 0.018 mL/min/mg protein | <0.05 mL/min/mg protein |  |  |  | CCN(CCN1CCC(c2noc3cc(F)ccc23)CC1)C(=O)[C@H](C)O [Example 16, (2S)—N-Ethyl-N-{2-[4-(6-fluoro-1,2-benzoisoxazol-3-yl)piperidin-1-yl]ethyl}-2-hydroxypropanamide] | 4800 nM |  |
| 27 h | 0.0025 mL/min/mg protein | <0.05 mL/min/mg protein | 66 nM |  |  | CCN(CCN1CCC(c2noc3cc(F)ccc23)CC1)C(=O)CCO [Example 17, N-Ethyl-N-{2-[4-(6-fluoro-1,2-benzoisoxazol-3-yl)piperidin-1-yl]ethyl}-3-hydroxypropanamide] | 2800 nM |  |
| 6 h | 0.016 mL/min/mg protein | <0.05 mL/min/mg protein | 62 nM | 1.9 nM | 309 nM | CCN(CCN1CCC(c2noc3cc(F)ccc23)CC1)S(=O)(=O)CCO [Example 51, N-Ethyl-N-{2-[4-(6-fluoro-1,2-benzoisoxazol-3-yl)piperidin-1-yl]ethyl}-2-hydroxyethane-1-sulfonamide] | 6900 nM |  |
|  |  | <0.05 mL/min/mg protein | 9 nM | 3.7 nM | 52 nM | CCN(CCN1CCC(c2noc3cc(F)ccc23)CC1)C(=O)C1(O)CCNC1 (stereo not drawn) [Example 70] | > 10000 nM |  |
|  |  | 0.057 mL/min/mg protein | 8 nM | 10.6 nM | < 100 nM | CCN(CCN1CCC(c2noc3cc(F)ccc23)CC1)C(=O)C1(O)CCCN(C(C)=O)C1 (stereo not drawn) [Example 72] | 9900 nM |  |
|  |  | <0.05 mL/min/mg protein | 77 nM | 6.8 nM | 138 nM | CCN(CCN1CCC(c2noc3cc(F)ccc23)CC1)C(=O)C1CN(C(C)=O)CCC1O (stereo not drawn) [Example 74] | 6700 nM |  |
|  |  | <0.05 mL/min/mg protein | 80 nM | 3.6 nM | 124 nM | CCN(CCN1CCC(c2noc3cc(F)ccc23)CC1)C(=O)C1CN(C)CC1O (stereo not drawn) [Example 75, N-Ethyl-N-{2-[4-(6-fluoro-1,2-benzoisoxazol-3-yl)piperidin-1-yl]ethyl}-4-hydroxy-1-methylpyrrolidine-3-carboxamide] | 3800 nM |  |
|  |  | <0.05 mL/min/mg protein | 65 nM | 14.4 nM | 193 nM | CCN(CCN1CCC(c2noc3cc(F)ccc23)CC1)C(=O)C1CN(C)CCC1O (stereo not drawn) [Example 76, N-Ethyl-N-{2-[4-(6-fluoro-1,2-benzoisoxazol-3-yl)piperidin-1-yl]ethyl}-4-hydroxy-1-methylpiperidine-3-carboxamide] | > 10000 nM |  |

| SMILES | Predicted half-life [2] | Metabolic stability in human hepatic microsome [3] | Metabolic stability in human hepatic microsome [4] | IC50 [5] | Ki [6] | Ki [8] | IC50 [1] | IC50 [7] |
| --- | --- | --- | --- | --- | --- | --- | --- | --- |
| CCN(CCN1CCC(n2ccc3cc(F)ccc32)CC1)C(=O)C(C)O (stereo not drawn) [Example 50] |  |  | <0.05 mL/min/mg protein | 81 nM | 13.5 nM | > 1000 nM |  | 49 nM |
| CCN(CCN1CCC(c2c[nH]c3ccccc23)CC1)S(=O)(=O)CCO [Example 57] |  |  | 0.06 mL/min/mg protein | 100 nM | 8.7 nM | 210 nM |  | 56 nM |
